Structures are written as SMILES.

The experiment deals with 3T3-L1. The experiment is described as follows: Antidiabetic activity in mouse 3T3L1 cells assessed as […] from cell culture medium using 450 mg/dL D-glucose at 30 ug/mL after 24 hrs (reference value: 310 +/- 4 mg/dl). It is filed as functional.
For the compound `O=C(/C=C/c1ccccc1)c1cc(Cl)ccc1O`, the Activity turned out to be 236 mg/dL. In the case of `COc1ccc(/C=C/C(=O)c2ccccc2Cl)cc1` it was 234 mg/dL; in that of `COc1ccc(/C=C/C(=O)c2cccc(Cl)c2)cc1`, 287 mg/dL. As to `COc1cccc(/C=C/C(=O)c2cccc(Cl)c2)c1`, the Activity came to 255 mg/dL. In the case of `COc1ccc(/C=C/C(=O)c2ccccc2Br)cc1` it was 230 mg/dL; in that of `O=C(/C=C/c1ccccc1)c1ccccc1I`, 223 mg/dL; in that of `COc1ccc(/C=C/C(=O)c2ccccc2I)cc1`, 210 mg/dL. The result for `COc1cccc(/C=C/C(=O)c2ccccc2I)c1` reads 210 mg/dL; that for `O=C(/C=C/c1cccc(OCc2ccccc2)c1)c1cccc(I)c1`, 238 mg/dL.
